System: platelet neutrophil complex (PNC) formation
Assay: in vitro simulation of PNC formation (ADP-stimulated, % CD11b+CD42a+ events)
Assay type: cell-based, human
Conditions: 125 μg/mL; for individuals in whom PNC formation decreased: 3 donors, Table 4; for effect on PNC formation (in words): 15 minute ingredient incubation, n=2-3 individuals, FIG. 1; for % CD11b+CD42a+ in the tested condition as a percent of those events that were CD11b+CD42a+ under ADP stimulation, average: average of subjects; for % CD11b+CD42a+ in the tested condition as a percent of those events that were CD11b+CD42a+ under ADP stimulation, average / % CD11b+CD42a+ in the tested condition as a percent of those events that were CD11b+CD42a+ under ADP stimulation: 15 minutes with ingredient, then ADP (10 μM) 15 minutes
Experimental: Data was generated using an in vitro simulation of PNC formation with a 15 minute ingredient incubation period.
Test concentration was 125 μg/mL for all ingredients tested. Cells were incubated with test ingredients or medium alone (ADP) for 15 minutes. ADP (10 μM) was added to each tube and incubated for 15 minutes. The ADP alone contained no test ingredient. Data is expressed as % CD11b+CD42a+ in the tested conditions as a percent of those events that were CD11b+CD42a+ under ADP stimulation.

Molecule | individuals in whom PNC formation decreased | effect on PNC formation (in words) | % CD11b+CD42a+ in the tested condition as a percent of those events that were CD11b+CD42a+ under ADP stimulation, average [%] | % CD11b+CD42a+ in the tested condition as a percent of those events that were CD11b+CD42a+ under ADP stimulation (subject 1) [%] | % CD11b+CD42a+ in the tested condition as a percent of those events that were CD11b+CD42a+ under ADP stimulation (subject 2) [%] | % CD11b+CD42a+ in the tested condition as a percent of those events that were CD11b+CD42a+ under ADP stimulation (subject 3) [%]
2′-fucosyllactose [2′FL] | decreased PNC formation in all 3 individuals tested | significantly reduces PNC formation | 66.9 | 87.8 | 62.1 | 50.7
3-fucosyllactose [3FL] |  | did not decrease PNC formation | 83.1 | 80.8 | 64.3 | 104.1
CC(=O)N[C@H]1[C@H](O[C@H]2[C@@H](O)[C@@H](CO)O[C@@H](O[C@H]3[C@H](O)[C@@H](O)C(O)O[C@@H]3CO)[C@@H]2O)O[C@H](CO)[C@@H](O[C@@H]2O[C@H](CO)[C@H](O)[C@H](O)[C@H]2O)[C@@H]1O (mixture of isomers) [LNnT, lacto-N-neotetraose] | decreased PNC formation in 2 out of the 3 subjects tested |  | 75.4 | 102.3 | 82.9 | 41.1
CC(=O)N[C@H]1[C@H]([C@H](O)[C@H](O)CO)O[C@@](O[C@H]2[C@@H](O)[C@@H](CO)O[C@@H](O[C@H]3[C@H](O)[C@@H](O)C(O)O[C@@H]3CO)[C@@H]2O)(C(=O)O)C[C@@H]1O (some centres unmarked) [3′SL, 3′-sialyllactose, reference compound] |  | do not decrease PNC formation | 99.2 | 91.3 | 89.3 | 117.1
CC(=O)N[C@H]1[C@H]([C@H](O)[C@H](O)CO)O[C@@](OC[C@H]2O[C@@H](O[C@H]3[C@H](O)[C@@H](O)[C@H](O)O[C@@H]3CO)[C@H](O)[C@@H](O)[C@H]2O)(C(=O)O)C[C@@H]1O [6′SL, 6′-sialyllactose, reference compound] |  | do not decrease PNC formation | 94.2 | 90.1 | 59.8 | 132.8

From patent US10624916B2, “Nutritional formulations using human milk oligosaccharides for modulating inflammation” (ABBOTT LABORATORIES, priority 2012, dated 2020)
